Measured values as given in article PMC10744336, “Functional Identification of Olfactory Receptors of Cnaphalocrocis medinalis (Lepidoptera: Crambidae) for Plant Odor” (Insects, 2023).

Columns and labels:
Assay in all cases: two-electrode voltage clamp, Xenopus oocytes
Type in all cases: cell-based
[1] = target: T1, CmedOR32/ORco (Cnaphalocrocis medinalis, UniProt A0A1B2G2M9); conditions: agonist; with CmedORco; -80 mV; pH 7.5; 15 s stimulus; concentration contradictory (text 0.1 μM, figure legend 10^-4 M)
T1 construct: full ORF cloned in pT7Ts; cRNA co-injected with CmedORco in Xenopus oocytes; with Odorant receptor coreceptor
T1 sequence (A0A1B2G2M9 1-389): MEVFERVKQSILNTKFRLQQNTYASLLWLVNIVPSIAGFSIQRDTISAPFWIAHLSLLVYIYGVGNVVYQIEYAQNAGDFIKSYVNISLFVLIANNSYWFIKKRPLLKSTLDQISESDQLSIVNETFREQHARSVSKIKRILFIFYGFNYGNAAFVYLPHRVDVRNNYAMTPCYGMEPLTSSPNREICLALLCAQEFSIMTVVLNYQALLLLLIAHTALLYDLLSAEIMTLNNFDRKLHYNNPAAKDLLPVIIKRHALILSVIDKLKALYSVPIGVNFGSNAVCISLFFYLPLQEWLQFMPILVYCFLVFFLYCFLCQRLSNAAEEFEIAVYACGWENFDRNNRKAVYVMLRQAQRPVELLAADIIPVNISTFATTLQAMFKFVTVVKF
T1 sequence (H9XFD5 1-473 partner): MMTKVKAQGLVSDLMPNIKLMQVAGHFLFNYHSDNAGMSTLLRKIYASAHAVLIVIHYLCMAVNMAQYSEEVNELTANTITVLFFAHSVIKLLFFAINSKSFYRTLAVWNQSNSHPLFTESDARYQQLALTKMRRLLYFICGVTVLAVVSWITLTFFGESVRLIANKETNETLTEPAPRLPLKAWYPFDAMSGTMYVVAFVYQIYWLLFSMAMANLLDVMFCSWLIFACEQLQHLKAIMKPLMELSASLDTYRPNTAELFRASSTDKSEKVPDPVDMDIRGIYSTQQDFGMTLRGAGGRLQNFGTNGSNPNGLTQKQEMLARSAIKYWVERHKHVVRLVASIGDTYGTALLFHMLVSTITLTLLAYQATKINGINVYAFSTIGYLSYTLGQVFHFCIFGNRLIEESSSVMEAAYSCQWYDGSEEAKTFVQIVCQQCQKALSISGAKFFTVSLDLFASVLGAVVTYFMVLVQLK

[2] = target: T2, CmedOR31/ORco (Cnaphalocrocis medinalis, UniProt A0A1B2G2M5); conditions: agonist; with CmedORco; -80 mV; pH 7.5; 15 s stimulus; concentration contradictory (text 0.1 μM, figure legend 10^-4 M)
T2 construct: full ORF cloned in pT7Ts; cRNA co-injected with CmedORco in Xenopus oocytes; with Odorant receptor coreceptor
T2 sequence (A0A1B2G2M5 1-408): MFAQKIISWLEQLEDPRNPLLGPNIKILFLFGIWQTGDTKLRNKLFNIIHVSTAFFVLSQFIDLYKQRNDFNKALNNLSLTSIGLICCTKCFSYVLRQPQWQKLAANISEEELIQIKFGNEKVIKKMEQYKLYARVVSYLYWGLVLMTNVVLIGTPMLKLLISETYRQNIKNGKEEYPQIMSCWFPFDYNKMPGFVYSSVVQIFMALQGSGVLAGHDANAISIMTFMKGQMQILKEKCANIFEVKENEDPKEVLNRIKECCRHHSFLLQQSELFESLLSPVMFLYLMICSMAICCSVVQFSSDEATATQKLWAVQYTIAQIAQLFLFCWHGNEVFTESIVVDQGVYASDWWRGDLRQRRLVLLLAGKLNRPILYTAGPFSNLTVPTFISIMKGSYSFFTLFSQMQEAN
T2 sequence (H9XFD5 1-473 partner): T1 sequence (H9XFD5 1-473 partner)

[3] = target: T3, CmedOR1/ORco (Cnaphalocrocis medinalis, UniProt A0A0U3A934); conditions: agonist, with CmedORco, -80 mV, pH 7.5, 15 s stimulus, concentration contradictory (text 0.1 μM, figure legend 10^-4 M)
T3 construct: gene or1; full ORF cloned in pT7Ts; cRNA co-injected with CmedORco in Xenopus oocytes; with Odorant receptor coreceptor
T3 sequence (A0A0U3A934 1-448): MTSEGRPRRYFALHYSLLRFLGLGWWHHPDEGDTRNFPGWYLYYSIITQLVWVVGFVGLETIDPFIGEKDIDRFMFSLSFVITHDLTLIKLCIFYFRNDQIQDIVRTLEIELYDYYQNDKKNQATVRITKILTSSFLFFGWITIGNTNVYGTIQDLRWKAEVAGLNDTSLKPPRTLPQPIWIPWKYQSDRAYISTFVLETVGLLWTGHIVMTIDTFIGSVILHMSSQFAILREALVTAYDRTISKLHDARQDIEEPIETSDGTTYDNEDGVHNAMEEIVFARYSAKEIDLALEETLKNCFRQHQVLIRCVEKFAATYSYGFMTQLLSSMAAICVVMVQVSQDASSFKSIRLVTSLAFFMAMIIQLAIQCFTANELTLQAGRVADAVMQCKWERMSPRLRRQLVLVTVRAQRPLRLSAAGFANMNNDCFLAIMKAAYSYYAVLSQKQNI
T3 sequence (H9XFD5 1-473 partner): T1 sequence (H9XFD5 1-473 partner)

[4] = target: T3, CmedOR1/ORco; conditions: agonist; with CmedORco; -80 mV; pH 7.5; 15 s stimulus; 10^-4 M (b31 also prints 0.1 μM)

Row | Structure (SMILES) | inward current [1] | also measured
1 | CCC/C=C/C=O [E2-hexenal] | plant foliar odorants cis-3-hexenyl acetate, E2-hexenal, and β-caryophyllene | –
2 | CCCC(=O)OCC [Ethyl butyrate] | floral volatile compounds methyl 2-methoxybenzoate, β-myrcene, and ethyl butyrate | –
3 | CC(C)=CCC/C(C)=C/CO [Geraniol] | – | inward current [2]: 128 ± 16 nA
4 | C=CC(C)(O)CCC=C(C)C (stereo not shown) [Linalool] | – | inward current [3]: 64 ± 5 nA
5 | COC(=O)c1ccccc1OC [Methyl 2-methoxybenzoate] | floral volatile compounds methyl 2-methoxybenzoate, β-myrcene, and ethyl butyrate | –
6 | OCCc1ccccc1 [Phenethyl alcohol] | – | inward current ([3]; printed as two isomers, phenethyl alcohol and 2-phenethyl alcohol): 130 ± 10 nA
7 | O=CCc1ccccc1 [Phenylacetaldehyde] | – | inward current at 10^-4 M [4]: 3200 ± 86 nA
8 | CC/C=C\CCOC(C)=O [cis-3-Hexenyl acetate] | CmedOR32 showed nonspecific responses to plant foliar odorants cis-3-hexenyl acetate | –
9 | C=C1CC/C=C(\C)CC[C@@H]2[C@@H]1CC2(C)C [β-Caryophyllene] | plant foliar odorants cis-3-hexenyl acetate, E2-hexenal, and β-caryophyllene | –
10 | C=CC(=C)CCC=C(C)C [β-Myrcene] | floral volatile compounds methyl 2-methoxybenzoate, β-myrcene, and ethyl butyrate | –
